Experimental data taken from patent US9955689B2, “Method for promoting plant growth” (SUMITOMO CHEMICAL COMPANY, LIMITED, priority 2012, dated 2018).

Test system: Nicotiana benthamiana
Assay: Test Example 5: growth promotion under low-temperature stress by hydroponics of Nicotiana benthamiana (1 ppm)
Assay type: in vivo
Details: compound at 1 ppm, 7 days at 1.5±1.0° C. low-temperature stress, then 3 days at 22° C., 5 or greater = growth promotion effect, read-out: value of a relative leaf area (Equation (1), area of green leaf)
Method: Test Example 5. Test for Evaluating Growth Promotion Under Low-Temperature Stress by Hydroponics of Nicotiana benthamiana
(Cultivation and Compound Treatment)
A DMSO solution, which contained one of the compounds 9, 10, 15, 16, 27 to 29, 31 to 37, 40, 44, 47, 48, 52, 55, 56, 58, 61, 63, 81, 87, 89, 92, 95, 98, 100, 102, 105, 108, 109, 111, 113, and 115 of the present invention at a concentration of 1,000 ppm, was prepared. The DMSO solution of the compound of the present invention was added at a volume ratio of 1/1,000 to the Murashige-Scoog medium of a ½-fold concentration (a medium containing 2.3 g of mixed salts (manufactured by Wako Pure Chemical Industries, Ltd.), 200 mg of Myo-inositol (manufactured by Sigme-Aldrich Co. LLC.), 2 mg of niconitic acid (manufactured by Wako Pure Chemical. Industries, Ltd.), 2 mg of pyridoxine hydrochloride (manufactured by Wako Pure Chemical Industries, Ltd.), 20 mg of thiamine hydrochloride (manufactured by Wako Pure Chemical Industries, Ltd.), 20 g of sucrose (manufactured by Wako Pure Chemical Industries, Ltd.), and 1 g of MES (manufactured by DOJINDO LABORATORIES) respectively per 1 L of water and having pH adjusted to 5.8), thereby preparing a medium containing the compound of the present invention at a concentration of 1 ppm.
Seeds of Nicotiana benthamiana were seeded in the 5 μL of the medium and cultured overnight at 22° C. Thereafter, 45 μL of the medium containing the compound of the present invention at a concentration of 1 ppm was added thereto, and the seeds are cultured for 7 days at 22° C. under the conditions of an illuminance of 4,000 lux, and a day length of 16 hours, and the seedlings raised from the Nicotiana benthamiana were treated with the compound. Moreover, instead of the above medium a test plot, which was obtained by performing the same treatment by using a medium prepared by adding DMSO to the Murashige⋅Scoog medium of ½-fold concentration at a volume ratio of 1/1,000, was used as a control plot not treated with the compound.
(Low-Temperature Stress Treatment)
The seedlings of the Nicotiana benthamiana treated with the compound were subjected to low-temperature treatment by being cultured for 7 days at 1.5±1.0° C., under the conditions of an illuminance of 2,000 lux, and a day length of 16 hours.
The seedlings of the Nicotiana benthamiana having undergone the low-temperature stress treatment were cultured for 3 days at 22° C. under the conditions of an illuminance of 4,000 lux, and a day length of 16 hours. Thereafter, the area of green leaf was quantified by Scanalyzer HTS (manufactured by LemnaTec GmbH). Moreover, the value of the control plot not treated with the compound that had not yet been subjected to the low-temperature stress treatment was measured in the same manner. A value of a relative leaf area was calculated based on the following equation (1), and if the relative value of leaf area was 5 or greater, the compound was evaluated to have a growth promotion effect. As a result of the evaluation, it was confirmed that when the plant was treated with one of the compounds 9, 10, 15, 16, 27 to 29, 31 to 37, 40, 44, 47, 48, 52, 55, 56, 58, 61, 63, 81, 87, 89, 92, 95, 98, 100, 102, 105, 108, 109, 111, 113, and 115 of the present invention at 1 ppm, the value of a relative leaf area was 5 or greater, compared to the area of green leaf of the control plot not treated with compound. Accordingly, it was confirmed that the treatment using the compound of the present invention improve a growth promotion effect. Relative leaf area=100*(a green area of a plot treated with the compound of the present invention minus(−) a green area of a plot not treated with the compound of the present invention)/(a green area of a control plot not treated with the compound of the present invention that had not yet been subjected to low-temperature stress treatment minus(−) a green area of a control plot not treated with the compound of the present invention) Equation (1): […]

Q: How did the relative leaf area at 1 ppm turn out when `O=C(O)c1cc2cccc(Oc3ccc(C(F)(F)F)cc3)c2s1` [Present compound 95, 7-(4-trifluoromethylphenoxy)benzo[b]thiophene-2-carboxylic acid] was run?
A: ≥ 5%

Q: With `O=C(O)c1cc2cc(S(=O)(=O)C(F)(F)F)ccc2s1` [Present compound 100, 5-(trifluoromethylsulfonyl)benzo[b]thiophene-2-carboxylic acid] as the compound, how does the relative leaf area at 1 ppm read?
A: ≥ 5%

Q: With `Nc1c(C(=O)O)sc2ccccc12` [Present compound 63, 3-amino-benzo[b]thiophene-2-carboxylic acid] as the compound, how does the relative leaf area at 1 ppm read?
A: ≥ 5%

Q: With `O=C(O)c1cc2cc(SC(F)(F)F)ccc2s1` [Present compound 98, 5-(trifluoromethylthio)benzo[b]thiophene-2-carboxylic acid] as the compound, how does the relative leaf area at 1 ppm read?
A: ≥ 5%

Q: Which relative leaf area at 1 ppm does the source give for `CC(C)Oc1c(C(=O)O)sc2ccccc12` [Present compound 87, 3-isopropoxybenzo[b]thiophene-2-carboxylic acid] here?
A: ≥ 5%

Q: `O=C(O)c1cc2cc(OC(F)(F)F)ccc2s1` [Present compound 89, 5-trifluoromethoxybenzo[b]thiophene-2-carboxylic acid] was tested. Which relative leaf area at 1 ppm did it give?
A: ≥ 5%

Q: Which relative leaf area at 1 ppm does the source give for `CNc1c(C(=O)O)sc2ccc(C(F)(F)F)cc12` [Present compound 109, 3-(N-methylamino)-5-trifluoromethylbenzo[b]thiophene-2-carboxylic acid] here?
A: ≥ 5%

Q: For `O=C(O)c1cc2ccc(-c3ccc(C(F)(F)F)nc3)cc2s1` [Present compound 47, 6-(6-trifluoromethyl-3-pyridyl) benzo[b]thiophene-2-caboxylic acid], which relative leaf area at 1 ppm is on record?
A: ≥ 5%

Q: Which relative leaf area at 1 ppm does the source give for `Nc1ccc2sc(C(=O)O)cc2c1` [Present compound 61, 5-aminobenzo[b]thiophene-2-carboxylic acid] here?
A: ≥ 5%

Q: `Nc1c(C(=O)O)sc2ccc(C(F)(F)F)cc12` [Present compound 108, 3-amino-5-trifluoromethylbenzo[b]thiophene-2-carboxylic acid] was tested. Which relative leaf area at 1 ppm did it give?
A: ≥ 5%

Q: Which relative leaf area at 1 ppm does the source give for `N#Cc1ccc2sc(C(=O)O)cc2c1` [Present compound 16, 5-cyanobenzo[b]thiophene-2-carboxylic acid] here?
A: ≥ 5%

Q: How did the relative leaf area at 1 ppm turn out when `O=C(O)c1sc2ccc(C(F)(F)F)cc2c1O` [Present compound 111, 3-hydroxy-5-trifluoromethylbenzo[b]thiophene-2-carboxylic acid] was run?
A: ≥ 5%

Q: For `Cc1cccc(-c2cccc3cc(C(=O)O)sc23)c1` [Present compound 40, 7-(3-methylphenyl)benzo[b]thiophene-2-carboxylic acid], which relative leaf area at 1 ppm is on record?
A: ≥ 5%

Q: Which relative leaf area at 1 ppm does the source give for `O=C(O)c1cc2cc(-c3ccccn3)ccc2s1` [Present compound 44, 5-(2-pyridyl)benzo[b]thiophene-2-carboxylic acid] here?
A: ≥ 5%

Q: How did the relative leaf area at 1 ppm turn out when `O=C(O)c1cc2cc(I)ccc2s1` [Present compound 15, 5-iodobenzo[b]thiophene-2-carboxylic acid] was run?
A: ≥ 5%

Q: For `O=C(O)c1cc2c(Cl)c(Cl)ccc2s1` [Present compound 102, 4,5-dichlorobenzo[b]thiophene-2-carboxylic acid], which relative leaf area at 1 ppm is on record?
A: ≥ 5%

Q: `COc1cccc(COc2ccc3cc(C(=O)O)sc3c2)c1` [Present compound 92, 6-(3-methoxybenzyloxy)benzo[b]thiophene-2-carboxylic acid] was tested. Which relative leaf area at 1 ppm did it give?
A: ≥ 5%

Q: `CC(=O)c1ccc2sc(C(=O)O)cc2c1` [Present compound 56, 5-acetylbenzo[b]thiophene-2-carboxylic acid] was tested. Which relative leaf area at 1 ppm did it give?
A: ≥ 5%

Q: `O=C(O)c1cc2cc(-c3ncccn3)ccc2s1` [Present compound 48, 5-(2-pyrimidinyl)benzo[b]thiophene-2-carboxylic acid] was tested. Which relative leaf area at 1 ppm did it give?
A: ≥ 5%

Q: Which relative leaf area at 1 ppm does the source give for `O=C(O)c1sc2ccc(C(F)(F)F)cc2c1Cl` [Present compound 105, 3-chloro-5-trifluoromethylbenzo[b]thiophene-2-carboxylic acid] here?
A: ≥ 5%

Q: Which relative leaf area at 1 ppm does the source give for `CCOc1c(C(=O)O)sc2ccc(C(F)(F)F)cc12` [Present compound 113, 3-ethoxy-5-trifluoromethylbenzo[b]thiophene-2-carboxylic acid] here?
A: ≥ 5%

Q: `O=C(O)c1cc2c(Br)cccc2s1` [Present compound 10, 4-bromobenzo[b]thiophene-2-carboxylic acid] was tested. Which relative leaf area at 1 ppm did it give?
A: ≥ 5%

Q: With `O=C(O)c1cc2c(C(=O)O)cccc2s1` [Present compound 52, benzo[b]thiophene-2,4-dicarboxylic acid] as the compound, how does the relative leaf area at 1 ppm read?
A: ≥ 5%

Q: Which relative leaf area at 1 ppm does the source give for `O=C(O)c1cc2cc(C(=O)C(F)(F)F)ccc2s1` [Present compound 58, 5-(trifluoroacetyl)benzo[b]thiophene-2-carboxylic acid] here?
A: ≥ 5%

Q: `O=C(O)c1sc2ccc(C(F)(F)F)cc2c1OCc1ccccc1` [Present compound 115, 3-benzyloxy-5-trifluoromethylbenzo[b]thiophene-2-carboxylic acid] was tested. Which relative leaf area at 1 ppm did it give?
A: ≥ 5%

Q: With `COc1cccc2sc(C(=O)O)cc12` [Present compound 81, 4-methoxybenzo[b]thiophene-2-carboxylic acid] as the compound, how does the relative leaf area at 1 ppm read?
A: ≥ 5%
